The source of these data is patent US10780090B2, “Heteroaryl compounds useful as inhibitors of SUMO activating enzyme” (Millennium Pharmaceuticals, Inc., priority 2014, dated 2020).

pIC50: −log10 of the molar value.

For the assay, the target named is recombinant human SAE enzyme (Homo sapiens (Human), UniProt Q9UBT2). In words: SAE HTRF enzyme assay. Format: biochemical. As to conditions: for IC50: SAE inhibition, class symbols, legend in nM. In outline: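 This HTRF format monitors Sumo-Flag–Ubc9-GST thioester formation catalysed by 0.11 nM human SAE with 0.5 μM ATP over 105 min at 24° C. Inhibition is expressed at a single concentration or as IC50.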

The mark [1] stands for this setting: SAE inhibition at compound concentration 0.111 μM.

Sequence of recombinant human SAE enzyme (Q9UBT2 whole entry): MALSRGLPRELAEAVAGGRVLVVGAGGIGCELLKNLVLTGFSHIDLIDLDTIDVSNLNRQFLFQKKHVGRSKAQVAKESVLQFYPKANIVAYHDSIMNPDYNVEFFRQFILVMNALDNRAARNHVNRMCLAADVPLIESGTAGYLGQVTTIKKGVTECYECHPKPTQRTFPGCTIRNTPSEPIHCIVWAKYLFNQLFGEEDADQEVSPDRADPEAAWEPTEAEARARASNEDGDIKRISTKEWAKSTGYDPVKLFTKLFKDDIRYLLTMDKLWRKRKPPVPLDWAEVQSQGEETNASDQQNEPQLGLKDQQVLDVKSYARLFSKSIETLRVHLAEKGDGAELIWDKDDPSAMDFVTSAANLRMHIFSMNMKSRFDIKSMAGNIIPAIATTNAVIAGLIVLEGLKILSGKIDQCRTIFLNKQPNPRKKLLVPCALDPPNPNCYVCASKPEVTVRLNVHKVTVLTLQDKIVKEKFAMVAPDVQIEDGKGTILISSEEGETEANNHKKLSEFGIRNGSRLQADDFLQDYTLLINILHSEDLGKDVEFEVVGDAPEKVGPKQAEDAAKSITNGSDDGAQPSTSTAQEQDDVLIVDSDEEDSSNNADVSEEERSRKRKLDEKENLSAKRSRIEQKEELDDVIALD
Sequence of recombinant human SAE enzyme (Q9UBE0 whole entry partner): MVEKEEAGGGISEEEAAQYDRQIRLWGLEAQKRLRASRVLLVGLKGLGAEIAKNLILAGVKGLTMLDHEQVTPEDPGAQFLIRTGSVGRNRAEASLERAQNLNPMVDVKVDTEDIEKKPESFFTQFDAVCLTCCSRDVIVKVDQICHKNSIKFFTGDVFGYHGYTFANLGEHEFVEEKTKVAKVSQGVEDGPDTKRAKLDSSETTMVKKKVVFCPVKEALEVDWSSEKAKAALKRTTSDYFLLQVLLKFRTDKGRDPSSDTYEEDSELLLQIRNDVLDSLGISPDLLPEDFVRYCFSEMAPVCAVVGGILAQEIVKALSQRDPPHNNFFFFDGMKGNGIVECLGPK

For the compound `Cc1sc(C(=O)c2cncnc2N[C@@H]2C[C@H](COS(N)(=O)=O)[C@@H](O)C2)cc1[C@@H]1OCCn2cc(C(F)(F)F)nc21` (mixture of isomers) [I-337, [(1R,2S,4R)-2-hydroxy-4-{[5-({5-methyl-4-[(8S)-2-(trifluoromethyl)-5,6-dihydro-8H-imidazo[2,1-c][1,4]oxazin-8-yl]-2-thienyl}carbonyl)pyrimidin-4-yl]amino}cyclopentyl]methyl sulfamate and [(1R,2S,4R)-2-hydroxy-4-{[5-({5-methyl-4-[(8R)-2-(trifluoromethyl)-5,6-dihydro-8H-imidazo[2,1-c][1,4]oxazin-8-yl]-2-thienyl}carbonyl)pyrimidin-4-yl]amino}cyclopentyl]methyl sulfamate], the IC50 (usually the concentration needed to halve the response being measured) is 10 to 100 nM. For the same compound, under setting [1], the “Percent Inhibition” value was found to be 89%.

On to `COc1ccc2c(n1)[C@H](c1cc(C(=O)c3cncnc3N[C@@H]3C[C@H](COS(N)(=O)=O)[C@@H](O)C3)sc1C)OCC2` (mixture of isomers) [I-339, [(1R,2S,4R)-2-hydroxy-4-{[5-({4-[(8S)-2-methoxy-5,8-dihydro-6H-pyrano[3,4-b]pyridin-8-yl]-5-methyl-2-thienyl}carbonyl)pyrimidin-4-yl]amino}cyclopentyl]methyl sulfamate and [(1R,2S,4R)-2-hydroxy-4-{[5-({4-[(8R)-2-methoxy-5,8-dihydro-6H-pyrano[3,4-b]pyridin-8-yl]-5-methyl-2-thienyl}carbonyl)pyrimidin-4-yl]amino}cyclopentyl]methyl sulfamate], for which the IC50 was less than 10 nM. Also, the “Percent Inhibition” value under setting [1] came out at 99%.

Consider `COc1ccc2c(c1)[C@H](c1cc(C(=O)c3cncnc3N[C@@H]3C[C@H](COS(N)(=O)=O)[C@@H](O)C3)sc1C)OCC2` (mixture of isomers) [I-341, [(1R,2S,4R)-2-hydroxy-4-{[5-({4-[(1R)-7-methoxy-3,4-dihydro-1H-isochromen-1-yl]-5-methyl-2-thienyl}carbonyl)pyrimidin-4-yl]amino}cyclopentyl]methyl sulfamate and [(1R,2S,4R)-2-hydroxy-4-{[5-({4-[(1S)-7-methoxy-3,4-dihydro-1H-isochromen-1-yl]-5-methyl-2-thienyl}carbonyl)pyrimidin-4-yl]amino}cyclopentyl]methyl sulfamate], for which the IC50 fell in the range of 100 to 1000 nM. Besides, under setting [1], the “Percent Inhibition” value was 10%.

On to `NS(=O)(=O)OC[C@H]1C[C@@H](Nc2ncncc2C(=O)c2cc([C@@H]3OCC(=O)c4ccccc43)cs2)C[C@@H]1O` (mixture of isomers) [I-342, [(1R,2S,4R)-2-hydroxy-4-{[5-({4-[(1R)-4-oxo-3,4-dihydro-1H-isochromen-1-yl]-2-thienyl}carbonyl)pyrimidin-4-yl]amino}cyclopentyl]methyl sulfamate and [(1R,2S,4R)-2-hydroxy-4-{[5-({4-[(1S)-4-oxo-3,4-dihydro-1H-isochromen-1-yl]-2-thienyl}carbonyl)pyrimidin-4-yl]amino}cyclopentyl]methyl sulfamate], for which the IC50 was less than 10 nM. Moreover, the “Percent Inhibition” value under setting [1] is 93%.

On to `Cc1sc(C(=O)c2cncnc2N[C@@H]2C[C@H](COS(N)(=O)=O)[C@@H](O)C2)cc1[C@@H]1OCCn2c1nc1ccccc12` (mixture of isomers) [I-344, [(1R,2S,4R)-4-{[5-({4-[(1S)-3,4-dihydro-1H-[1,4]oxazino[4,3-a]benzimidazol-1-yl]-5-methyl-2-thienyl}carbonyl)pyrimidin-4-yl]amino}-2-hydroxycyclopentyl]methyl sulfamate and [(1R,2S,4R)-4-{[5-({4-[(1R)-3,4-dihydro-1H-[1,4]oxazino[4,3-a]benzimidazol-1-yl]-5-methyl-2-thienyl}carbonyl)pyrimidin-4-yl]amino}-2-hydroxycyclopentyl]methyl sulfamate], for which the IC50 is less than 10 nM. Besides, the “Percent Inhibition” value under setting [1] was determined as 99%.

As for `CCc1ccc2c(c1)[C@H](c1cc(C(=O)c3cncnc3N[C@@H]3C[C@H](COS(N)(=O)=O)[C@@H](O)C3)sc1C)OCC2` (mixture of isomers) [I-346, [(1R,2S,4R)-4-{[5-({4-[(1R)-7-ethyl-3,4-dihydro-1H-isochromen-1-yl]-5-methyl-2-thienyl}carbonyl)pyrimidin-4-yl]amino}-2-hydroxycyclopentyl]methyl sulfamate and [(1R,2S,4R)-4-{[5-({4-[(1S)-7-ethyl-3,4-dihydro-1H-isochromen-1-yl]-5-methyl-2-thienyl}carbonyl)pyrimidin-4-yl]amino}-2-hydroxycyclopentyl]methyl sulfamate], the IC50 was less than 10 nM. In addition, the “Percent Inhibition” value under setting [1] turned out to be 99%.

For the compound `Cc1ccc2c(c1)[C@H](c1cc(C(=O)c3cncnc3N[C@@H]3C[C@H](COS(N)(=O)=O)[C@@H](O)C3)sc1C)OCC2` (mixture of isomers) [I-347, [(1R,2S,4R)-2-hydroxy-4-{[5-({5-methyl-4-[(1R)-7-methyl-3,4-dihydro-1H-isochromen-1-yl]-2-thienyl}carbonyl)pyrimidin-4-yl]amino}cyclopentyl]methyl sulfamate and [(1R,2S,4R)-2-hydroxy-4-{[5-({5-methyl-4-[(1S)-7-methyl-3,4-dihydro-1H-isochromen-1-yl]-2-thienyl}carbonyl)pyrimidin-4-yl]amino}cyclopentyl]methyl sulfamate], the IC50 is less than 10 nM. Moreover, the “Percent Inhibition” value under setting [1] is 97%.

As for `Cc1sc(C(=O)c2cncnc2N[C@@H]2C[C@H](COS(N)(=O)=O)[C@@H](O)C2)cc1[C@H]1OCCc2ccc(N3CCCC3)nc21` (mixture of isomers) [I-348, [(1R,2S,4R)-2-hydroxy-4-{[5-({5-methyl-4-[(8R)-2-(pyrrolidin-1-yl)-5,8-dihydro-6H-pyrano[3,4-b]pyridin-8-yl]-2-thienyl}carbonyl)pyrimidin-4-yl]amino}cyclopentyl]methyl sulfamate and [(1R,2S,4R)-2-hydroxy-4-{[5-({5-methyl-4-[(8S)-2-(pyrrolidin-1-yl)-5,8-dihydro-6H-pyrano[3,4-b]pyridin-8-yl]-2-thienyl}carbonyl)pyrimidin-4-yl]amino}cyclopentyl]methyl sulfamate], the 50% inhibitory concentration (IC50) is less than 10 nM. In addition, the “Percent Inhibition” value under setting [1] was 97%.

`NS(=O)(=O)OC[C@H]1C[C@@H](Nc2ncncc2C(=O)c2cc([C@@H]3CCc4ccc(Cl)cc43)cs2)C[C@@H]1O` (mixture of isomers) [I-349, [(1R,2S,4R)-4-{[5-({4-[(1R)-6-chloro-2,3-dihydro-1H-inden-1-yl]-2-thienyl}carbonyl)pyrimidin-4-yl]amino}-2-hydroxycyclopentyl]methyl sulfamate and [(1R,2S,4R)-4-{[5-({4-[(1S)-6-chloro-2,3-dihydro-1H-inden-1-yl]-2-thienyl}carbonyl)pyrimidin-4-yl]amino}-2-hydroxycyclopentyl]methyl sulfamate]: the 50% inhibitory concentration (IC50) was 100 to 1000 nM. Further, under setting [1], the “Percent Inhibition” value is on record as 42%.

`Cc1nc2n(c1C)CCO[C@@H]2c1cc(C(=O)c2cncnc2N[C@@H]2C[C@H](COS(N)(=O)=O)[C@@H](O)C2)sc1C` (mixture of isomers) [I-356, ((1R,2S,4R)-4-{(5-(4-((R)-2,3-dimethyl-6,8-dihydro-5H-imidazo[2,1-c][1,4c]oxazin-8-yl)-5-methylthiophene-2-carbonyl)pyrimidin-4-yl)amino)-2-hydroxycyclopentyl)methyl sulfamate and ((1R,2S,4R)-4-((5-4-((S)-2,3-dimethyl-6,8-dihydro-5H-imidazo[2,1-c][1,4]oxazin-8-yl)-5-methylthiophene-2-carbonyl)pyrimidin-4-yl)amino)-2-hydroxycyclopentyl)methyl sulfamate]: the IC50 was less than 10 nM. Moreover, the “Percent Inhibition” value under setting [1] was 97%.

Take `Cc1sc(C(=O)c2cncnc2N[C@@H]2C[C@H](COS(N)(=O)=O)[C@@H](O)C2)cc1[C@@H]1SCc2ccc(Cl)cc21` (mixture of isomers) [I-359a, [(1RS,2SR,4RS)-4-[[5-[4-[(R)-6-chloro-1,3-dihydro-2-benzothiophene-1-yl]-5-methyl-thiophene-2-carbonyl]pyrimidin-4-yl]amino]-2-hydroxy-cyclopentyl]methyl sulfamate]: the IC50 lay in the range of 10 to 100 nM. The inhibition (as a rule, the percentage by which the read-out fell short of the control) at 0.111 µM (SAE inhibition at compound concentration 0.111 μM, read-out: Percent Inhibition) was 92%.

In the case of `Cc1sc(C(=O)c2cncnc2N[C@@H]2C[C@H](COS(N)(=O)=O)[C@@H](O)C2)cc1[C@H]1SCc2ccc(Cl)cc21` (racemic) [I-359b, [(1RS,2SR,4RS)-4-[5-[4-[(1S)-6-chloro-1,3-dihydro-2-benzothiophene-1-yl]-5-methyl-thiophene-2-carbonyl]pyrimidin-4-yl]amino]-2-hydroxy-cyclopentyl]methyl sulfamate], the IC50 was less than 10 nM. Further, the “Percent Inhibition” value under setting [1] stood at 95%.

As to `C[C@](O)(c1csc(C(=O)c2cncnc2N[C@@H]2C[C@H](COS(N)(=O)=O)[C@@H](O)[C@H]2O)c1)c1cccc(Br)n1` (single isomer, unassigned) [I-1a, [(1R,2R,3S,4R)-4-{[5-({4-[(1S)-1-(6-bromopyridin-2-yl)-1-hydroxyethyl]-2-thienyl}carbonyl)pyrimidin-4-yl]amino}-2,3-dihydroxycyclopentyl]methyl sulfamate or [(1R,2R,3S,4R)-4-{[5-({4-[(1R)-1-(6-bromopyridin-2-yl)-1-hydroxyethyl]-2-thienyl}carbonyl)pyrimidin-4-yl]amino}-2,3-dihydroxycyclopentyl]methyl sulfamate], the “Percent Inhibition” value (Concentration 0.111 μM) is recorded as 96. Besides, the pIC50 (as a rule, −log10 of the IC50, conventionally taken in molar units) (class symbols A/B/C) is greater than 8.00.
